Target: GDP-bound KRAS protein (aa 1-169), containing both G12C and C118A amino acid substitutions (Homo sapiens (Human), UniProt P01116, C118A/G12C)
Assay: Coupled nucleotide exchange assay (SOS-mediated nucleotide exchange, AlphaScreen)
Assay type: biochemical
Conditions: 5 min compound pre-incubation; for IC50: read-out: Coupled exchange IC50 (5 min; μM)

Chain of GDP-bound KRAS protein (aa 1-169), containing both G12C and C118A amino acid substitutions (P01116 other isoform, or with tags, fused parts or gaps G12C/C118A): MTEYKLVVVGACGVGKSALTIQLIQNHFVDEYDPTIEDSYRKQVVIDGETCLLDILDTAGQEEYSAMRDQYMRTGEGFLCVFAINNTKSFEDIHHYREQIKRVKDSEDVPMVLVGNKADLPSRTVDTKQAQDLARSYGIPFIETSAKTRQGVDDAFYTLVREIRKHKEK

Structure (SMILES)	Coupled exchange IC50 (5 min; μM) [µM]	IC50 [µM]
C=CC(=O)N1C[C@H](C)N(c2nc(=O)n(-c3c(C)cc(C4CC4)nc3C(C)C)c3nc(-c4ccccc4F)c(Cl)cc23)C[C@H]1C (single isomer, unassigned) [Example 164-2]	3.44	
C=CC(=O)N1C[C@H](C)N(c2nc(=O)n(-c3c(C)cc(CC)nc3C(C)C)c3nc(-c4ccccc4F)c(Cl)cc23)C[C@H]1C (single isomer, unassigned) [Example 166-2]	1.032	
C=CC(=O)N1C[C@H](C)N(c2nc(=O)n(-c3c(C(C)C)cc(N4CCC4)nc3C(C)C)c3nc(-c4ccccc4F)c(Cl)cc23)C[C@H]1C (single isomer, unassigned) [Example 182-1]	0.14	
C=CC(=O)N1C[C@H](C)N(c2nc(=O)n(-c3c(C(C)C)cc(N4CCC4)nc3C(C)C)c3nc(-c4ccccc4F)c(Cl)cc23)C[C@H]1C (single isomer, unassigned) [Example 182-2]	0.187	
C=CC(=O)N1CCN(c2nc(=O)n(-c3c(C)cc(N)nc3C(C)C)c3nc(-c4ccccc4F)c(Cl)cc23)[C@@H](C)C1 (single isomer, unassigned) [Example 183-1]	0.61	
C=CC(=O)N1C[C@H](C)N(c2nc(=O)n(-c3c(N)ncnc3C(C)C)c3nc(-c4ccccc4F)c(Cl)cc23)C[C@H]1C (single isomer, unassigned) [Example 189-2]	14.7	
C=CC(=O)N1C[C@H](C)N(c2nc(=O)n(-c3c(C)nc(Cl)nc3C(C)C)c3nc(-c4ccccc4F)c(Cl)cc23)C[C@H]1C (single isomer, unassigned) [Example 191-1]	2.99	
C=CC(=O)N1C[C@H](C)N(c2nc(=O)n(-c3c(C)ncnc3C(C)C)c3nc(-c4ccccc4F)c(Cl)cc23)C[C@H]1C (single isomer, unassigned) [Example 194-2]	1.45	
C=CC(=O)N1C[C@H](C)N(c2nc(=O)n(-c3c(C)nc(Br)nc3C(C)C)c3nc(-c4ccccc4F)c(Cl)cc23)C[C@H]1C (single isomer, unassigned) [Example 197-1]	1.59	
C=CC(=O)N1C[C@H](C)N(c2nc(=O)n(-c3c(C(C)C)cccc3S(C)(=O)=O)c3nc(-c4ccccc4F)c(Cl)cc23)C[C@H]1C (single isomer, unassigned) [Example 208-1]		2.56
C=CC(=O)N1C[C@H](C)N(c2nc(=O)n(-c3c(C(C)C)cccc3[S+](C)[O-])c3nc(-c4ccccc4F)c(Cl)cc23)C[C@H]1C (single isomer, unassigned) [Example 209-2]	1.34	
C=CC(=O)N1C[C@H](C)N(c2nc(=O)n(-c3c(C)cc([S+](C)[O-])cc3C(C)C)c3nc(-c4ccccc4C)c(Cl)cc23)C[C@H]1C (single isomer, unassigned) [Example 213-1]	1.5	
C=CC(=O)N1C[C@H](C)N(c2nc(=O)n(-c3c(C)cc([S+](C)[O-])cc3C(C)C)c3nc(-c4ccccc4C)c(Cl)cc23)C[C@H]1C (single isomer, unassigned) [Example 213-4]	1.51	
C=CC(=O)N1C[C@H](C)N(c2nc(=O)n(-c3c(C)cc(S(C)(=O)=O)cc3C(C)C)c3nc(-c4ccccc4F)c(Cl)cc23)C[C@H]1C (single isomer, unassigned) [Example 215-1]	3.79	
C=CC(=O)N1[C@H](C)CN(c2nc(=O)n(-c3c(C)ccnc3C(C)C)c3nc(-c4ccccc4F)c(Cl)nc23)C[C@@H]1C (single isomer, unassigned) [Example 224-1]		23.3
C=CC(=O)N1[C@H](C)CN(c2nc(=O)n(-c3c(C)ccnc3C(C)C)c3nc(-c4ccccc4F)c(Cl)nc23)C[C@@H]1C (single isomer, unassigned) [Example 224-2]		1.29
C=CC(=O)N1C[C@H](C)N(c2nc(=O)n(-c3c(C)ccnc3C(C)C)c3nc(-c4ccccc4F)c(C)nc23)C[C@H]1C (single isomer, unassigned) [Example 225-1]		7.62

Structure (SMILES)	Coupled exchange IC50 (5 min; μM) [µM]	IC50 [µM]
C=CC(=O)N1C[C@H](C)N(c2nc(=O)n(-c3c(C)ccnc3C(C)C)c3nc(-c4ccccc4F)c(C)nc23)C[C@H]1C (single isomer, unassigned) [Example 225-2]		0.501
C=CC(=O)N1C[C@H](C)N(c2nc(=O)n(-c3c(C)ccnc3C(C)C)c3nc(-c4ccccc4F)c(C)nc23)C[C@H]1C (single isomer, unassigned) [Example 225]		4.43
C=CC(=O)N1C[C@H](C)N(c2nc(=O)n(-c3c(C)ccnc3C(C)C)c3nc(-c4ncccc4OC)c(Cl)cc23)C[C@H]1C [96-2]		1.22
C=CC(=O)N1C[C@H](C)N(c2nc(=O)n(C3CCCCC3)c3nc(-c4ccccc4F)c(Cl)cc23)C[C@H]1C [110-2, 6-Chloro-1-cyclohexyl-4-[(2S,5R)-2,5-dimethyl-4-prop-2-enoyl-piperazin-1-yl]-7-(2-fluorophenyl)pyrido [2,3-d]pyrimidin-2-one]	13.4	
C=CC(=O)N1C[C@H](C)N(c2nc(=O)n(-c3c(N(C)C)ccnc3C(C)C)c3nc(-c4ccccc4S(C)(=O)=O)c(Cl)cc23)C[C@H]1C [Example 55-53, 6-Chloro-1-[4-(dimethylamino)-2-isopropyl-3-pyridyl]-4-[(2S,5R)-2,5-dimethyl-4-prop-2-enoyl-piperazin-1-yl]-7-(2-methylsulfonylphenyl)pyrido[2,3-d]pyrimidin-2-one]		0.356
C=CC(=O)N1C[C@H](C)N(c2nc(=O)n(-c3ccccc3P(C)(C)=O)c3nc(-c4ccccc4F)c(Cl)cc23)C[C@H]1C [Example 55-55, 6-Chloro-1-(2-dimethylphosphorylphenyl)-4-[(2S,5R)-2,5-dimethyl-4-prop-2-enoyl-piperazin-1-yl]-7-(2-fluorophenyl)pyrido[2,3-d]pyrimidin-2-one]		3.14
C=CC(=O)N1C[C@H](C)N(c2nc(=O)n(-c3c(C(C)C)ncnc3C(C)C)c3nc(-c4ccccc4C#N)c(Cl)cc23)C[C@H]1C [Example 100-3, 2-[6-Chloro-1-(4,6-diisopropylpyrimidin-5-yl)-4-[(2S,5R)-2,5-dimethyl-4-prop-2-enoyl-piperazin-1-yl]-2-oxo-pyrido[2,3-d]pyrimidin-7-yl]benzonitrile]		0.763
C=CC(=O)N1CCN(c2nc(=O)n(CC(C)(C)C)c3nc(Cl)c(Cl)cc23)CC1 [Example 100-5, 6,7-Dichloro-1-(2,2-dimethylpropyl)-4-(4-prop-2-enoylpiperazin-1-yl)pyrido[2,3-d]pyrimidin-2-one]		58.3
C=CC(=O)N1CCN(c2nc(=O)n(CC(C)(C)C)c3ncccc23)CC1 [Example 100-6, 1-(2,2-dimethylpropyl)-4-(4-prop-2-enoylpiperazin-1-yl)pyrido[2,3-d]pyrimidin-2-one]		250
C=CC(=O)N1C[C@H](C)N(c2nc(=O)n(-c3c(C(C)C)ncnc3C(C)C)c3nc(-c4ccccc4S(C)(=O)=O)c(Cl)cc23)C[C@H]1C [Example 100-7, 6-Chloro-1-(4,6-diisopropylpyrimidin-5-yl)-4-[(2S,5R)-2,5-dimethyl-4-prop-2-enoyl-piperazin-1-yl]-7-(2-methylsulfonylphenyl) pyrido[2,3-d]pyrimidin-2-one]		5.1
CC(C)c1ncnc(C(C)C)c1-n1c(=O)nc(N2CCN(C(=O)/C=C/CN(C)C)C[C@@H]2C)c2cc(Cl)c(-c3ccccc3F)nc21 [Example 102-2, 6-Chloro-1-(4,6-diisopropylpyri-midin-5-yl)-4-[(2S)-4-[(E)-4-(dimethylamino)but-2-enoyl]-2-methyl-piperazin-1-yl]-7-(2-fluorophenyl) pyrido[2,3-d]pyrimidin-2-one]		1.23
C=CC(=O)N1C[C@H](C)N(c2nc(=O)n(-c3c(C)cc(P(C)(C)=O)cc3C(C)C)c3nc(-c4ccccc4F)c(Cl)cc23)C[C@H]1C [Example 102-7, 6-Chloro-1-(4-dimethylphosphoryl-2-isopropyl-6-methyl-phenyl)-4-[(2S,5R)-2,5-dimethyl-4-prop-2-enoyl-piperazin-1-yl]-7-(2-fluorophenyl) pyrido[2,3-d]pyrimidin-2-one]		0.376
C=CC(=O)N1C[C@H](C)N(c2nc(=O)n(-c3c(C(C)C)ccnc3C(=O)N(C)C)c3nc(-c4ccccc4F)c(Cl)cc23)C[C@H]1C [Example 102-8, 3-[6-Chloro-4-[(2S,5R)-2,5-dimethyl-4-prop-2-enoyl-piperazin-1-yl]-7-(2-fluorophenyl)-2-oxo-pyrido[2,3-d]pyrimidin-1-yl]-4-isopropyl-N,N-dimethyl-pyridine-2-carboxamide]		184
C=CC(=O)N1C[C@H](C)N(c2nc(=O)n(-c3c(C)ccnc3C(C)C)c3nc(-c4ccccc4F)c(Cl)nc23)C[C@H]1C [Example 106-6, 6-Chloro-4-[(2S,5R)-2,5-dimethyl-4-prop-2-enoyl-piperazin-1-yl]-7-(2-fluorophenyl)-1-(2-isopropyl-4-methyl-3-pyridyl)pteridin-2-one]		0.322
C=CC(=O)N1C[C@@H](C)N(c2nc(=O)n(-c3c(C)ccnc3C(C)C)c3nc(-c4ccccc4F)c(Cl)nc23)[C@@H](C)C1 [Example 106-7, 6-Chloro-4-[(2R,6S)-2,6-dimethyl-4-prop-2-enoyl-piperazin-1-yl]-7-(2-fluorophenyl)-1-(2-isopropyl-4-methyl-3-pyridyl)pteridin-2-one]		0.301
C=CC(=O)N1C[C@@H](C)N(c2nc(=O)n(-c3c(C)ccnc3C(C)C)c3nc(-c4ccccc4F)c(Cl)nc23)[C@@H](C)C1 [Example 106-7-1, 6-Chloro-4-[(2R,6S)-2,6-dimethyl-4-prop-2-enoyl-piperazin-1-yl]-7-(2-fluorophenyl)-1-(2-isopropyl-4-methyl-3-pyridyl)pteridin-2-one]		1.98
C=CC(=O)N1CCN(c2nc(=O)n(CC(C)(C)C#N)c3nc(-c4ccccc4F)c(Cl)cc23)CC1 [Example 106-10, 3-[6-Chloro-7-(2-fluorophenyl)-2-oxo-4-(4-prop-2-enoylpiperazin-1-yl)pyrido[2,3-d]pyrimidin-1-yl]-2,2-dimethyl-propanenitrile]		12.1

— patent publication US11285156B2, “Substituted piperazines as KRAS G12C inhibitors” (Amgen Inc., priority 2018, dated 2022)
